From patent US20120202877A1 (priority 2009, published 2012)

How the values were obtained:
[1] = test system: A/Paris/0497/2007 (H1N1, H274); assay: microbe, parasite or virus in culture; assay type: cell-based, influenza virus; conditions: for EC50: Influenza A virus, H1N1, 72 h, read-out: EC50, 50% reduction of the average plaque diameter
A/Paris/908/97 (H3N2) = assay: microbe, parasite or virus in culture; assay type: cell-based, influenza virus; conditions: for EC50: Influenza A virus, H3N2, 72 h, read-out: EC50, 50% reduction of the average plaque diameter
[2] = target: influenza A virus N1 sialidase [A/HongKong/156/97 (H5N1)] wild type (Influenza A virus, UniProt Q9W7Y7); assay: biochemical
[3] = target: influenza A virus N2 sialidase [A/Paris/908/97 (H3N2)] (Influenza A virus, UniProt Q9EA36); assay type: biochemical

Structure (SMILES)	change in plaque size [1]	EC50 [1] [µM]	change in plaque size (A/Paris/908/97 (H3N2))	EC50 (A/Paris/908/97 (H3N2)) [µM]	Ki [2] [µM]	Ki [3] [µM]
CC(=O)NC1C(O)C(CC=Cc2ccc(C)cc2)=C(C(=O)O)OC1C(O)C(O)CO (stereo not shown) [Compound 9d]	significant decrease in plaque size	80	little or no visible difference in plaque size	> 1000		
C=CCC1=C(C(=O)O)O[C@@H]([C@H](O)[C@H](O)CO)[C@H](NC(C)=O)[C@H]1O [Compound 7, 5-Acetamido-2,6-anhydro-3,5-dideoxy-3-C-(prop-2′-enyl)-D-glycero-D-galacto-non-2-en-onic acid]		1800		> 5000		
CC(=O)N[C@H]1[C@H]([C@H](O)[C@H](O)CO)OC(C(=O)O)=C[C@@H]1O [Neu5Ac2en, reference compound]		20		20	0.97 ± 0.15	1.24 ± 0.23
